Patent US8962608B2, “Cycloalkylnitrile pyrazole carboxamides as janus kinase inhibitors” (Merck Sharp & Dohme Corp., priority 2011, dated 2015)

Biological target: JAK1 (recombinant purified GST-tagged catalytic domain) (Homo sapiens (Human), UniProt P23458)
Assay: biochemical
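Also: biochemical assay with HTRF read-out.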

Chain of JAK1 (recombinant purified GST-tagged catalytic domain) (P23458 875-1153): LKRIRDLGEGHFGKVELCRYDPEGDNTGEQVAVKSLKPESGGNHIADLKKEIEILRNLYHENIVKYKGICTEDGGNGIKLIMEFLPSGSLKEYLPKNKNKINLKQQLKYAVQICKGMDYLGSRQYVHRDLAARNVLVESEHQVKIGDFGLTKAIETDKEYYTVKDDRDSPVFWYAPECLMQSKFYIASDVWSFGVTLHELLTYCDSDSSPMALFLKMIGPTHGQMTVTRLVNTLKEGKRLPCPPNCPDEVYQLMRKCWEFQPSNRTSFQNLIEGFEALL

Compared with `CN([C@H]1CCC(n2cc(C(N)=O)c(Nc3ccc(Cl)cc3)n2)[C@@H](C#N)C1)C(C)(C)C1CC1` (single isomer, unassigned) [Example 28-229, 3-[(4-chlorophenyl)amino]-1-{(1S,2S,4S or 1R,2R,4R)-2-cyano-4-[(1-cyclopropyl-1-methylethyl)(methyl)amino]cyclo-hexyl}-1H-pyrazole-4-carboxamide], `CN([C@H]1CC[C@H](n2cc(C(N)=O)c(Nc3ccc(Cl)cc3)n2)[C@@H](C#N)C1)C(C)(C)C` (single isomer, unassigned) [Example 28-6, 1-((1S,2S,4S or 1R,2R,4R)-4-(tert-butyl(methyl)amino)-2-cyanocyclohexyl)-3-((4-chlorophenyl)amino)-1H-pyrazole-4-carboxamide] is 1.8-fold lower in IC50: 1 nM for the first, 0.55 nM for the second. The second is the more potent here.

Going from `N#C[C@@H]1C[C@H](C(=O)N[C@H](C2CC2)C(F)(F)F)CC[C@H]1n1cc(C(N)=O)c(Nc2ccc(Cl)cc2)n1` (single isomer, unassigned) [Example 35-25, 3-[(4-chlorophenyl)amino]-1-[(1R,2R,4R or 1S,2S,4S)-2-cyano-4-{[(1R)-1-cyclopropyl-2,2,2-trifluoroethyl]carbamoyl}cyclohexyl]-1H-pyrazole-4-carboxamide] to `N#C[C@H]1C[C@@H](C(=O)N[C@@H](C2CC2)C(F)(F)F)CC[C@@H]1n1cc(C(N)=O)c(Nc2ccc(Cl)cc2)n1` (single isomer, unassigned) [Example 35-24, 3-[(4-chlorophenyl)amino]-1-[(1S,2S,4S or 1R,2R,4R)-2-cyano-4-{[(1S)-1-cyclopropyl-2,2,2-trifluoroethyl]carbamoyl}cyclohexyl]-1H-pyrazole-4-carboxamide], the IC50 rises from 21 nM to 180 nM (8.6-fold). The first is the more potent here.

Compared with `CNC1CCC(n2cc(C(N)=O)c(Nc3ccc(S(=O)(=O)C(F)(F)F)cc3)n2)[C@@H](C#N)C1` (mixture of isomers) [Example 27-6, 1-[(1S,2S and 1R,2R)-2-cyano-4-(methylamino)cyclohexyl]-3-({4-[(trifluoromethyl)sulfonyl]phenyl}amino)-1H-pyrazole-4-carboxamide], `N#C[C@H]1CC(NCCO)CCC1n1cc(C(N)=O)c(Nc2ccc(S(=O)(=O)C(F)(F)F)cc2)n1` (mixture of isomers) [Example 27-15, 1-{(1S,2S and 1R,2R)-2-cyano-4-[(2-hydroxyethyl)amino]cyclohexyl}-3-({4-[(trifluoromethyl)sulfonyl]phenyl)amino)-l/f-pyrazolc-4-carboxamide] is 4.4-fold higher in IC50: 0.08 nM for the first, 0.35 nM for the second. The first is the more potent here.

`N#C[C@H]1C[C@@H](N2CC(O)(C(F)(F)F)C2)CC[C@@H]1n1cc(C(N)=O)c(Nc2ccc(C(F)(F)F)cc2)n1` (single isomer, unassigned) [Example 28-200, 1-{(1S,2S,4S or 1R,2R,4R)-2-cyano-4-[3-hydroxy-3-(trifluoromethyl)azetidin-1-yl]cyclohexyl}-3-{[4-(trifluoromethyl)phenyl]amino}-nvrazole-4-carboxamide] and `N#C[C@H]1C[C@@H](N2CC(O)(C(F)(F)F)C2)CCC1n1cc(C(N)=O)c(Nc2ccc(Cl)cc2)n1` (single isomer, unassigned) [Example 28-213, 3-[(4-chlorophenyl)amino]-1-{(1S,2S,4S or 1R,2R,4R)-2-cyano-4-[3-hydroxy-3-(trifluoromethyl)azetidin-1-yl]cyclohexyl}-1H-pyrazole-4-carboxamide] are the same in IC50: 1 nM for the first, 1 nM for the second.

Compared with `N#C[C@H]1C[C@@H](N2CC3(CCC3)C2)CC[C@@H]1n1cc(C(N)=O)c(Nc2ccc(C(F)(F)F)cc2)n1` (single isomer, unassigned) [Example 28-17, 1-[(1S,2S,4S or 1R,2R,4R)-4-(2-azaspiro[3.3]hept-2-yl)-2-cyanocyclohexyl]-3-{[4-(trifluoromethyl)phenyl]amino}-1H-pyrazole-4-carboxamide], `C[C@@H]1C[C@@H](C)N1[C@@H]1CC[C@H](n2cc(C(N)=O)c(Nc3ccc(C(F)(F)F)cc3)n2)[C@@H](C#N)C1` (single isomer, unassigned) [Example 28-30, 1-{(1S,2S,4R or 1R,2R,4S)-2-cyano-4-[(2R,4R or 2S,4S)-2,4-dimethylazetidin-1-yl]cyclohexyl}-3-{[4-(trifluoromethyl)phenyl]amino}-1H-pyrazole-4-carboxamide] is 7.5-fold higher in IC50: 2 nM for the first, 15 nM for the second.

`N#C[C@H]1C[C@@H](NCC(F)(F)F)CC[C@@H]1n1cc(C(N)=O)c(Nc2ccnc(F)c2)n1` (single isomer, unassigned) [Example 28-111, 1-{(1S,2S,4S or 1R,2R,4R)-2-cyano-4-[(2,2,2-trifluoroethyl)amino]cyclohexyl}-3-[(2-fluoropyridin-4-yl)amino]-1H-pyrazole-4-carboxamide] and `N#C[C@H]1C[C@H](O)CCC1n1cc(C(N)=O)c(Nc2ccnc(F)c2)n1` (single isomer, unassigned) [Example 25-21, 1-[(1S,2S,4R or 1R,2R,4S)-2-cyano-4-hydroxycyclohexyl]-3-[(2-fluoropyridin-4-yl)amino]-1H-pyrazole-4-carboxamide] are the same in IC50: 1 nM for the first, 1 nM for the second.

Compared with `N#C[C@H]1CCCC[C@@H]1n1cc(C(N)=O)c(Nc2cc(F)cc(Cl)c2)n1` (single isomer, unassigned) [Example 17-51, 3-[(3-chloro-5-fluorophenyl)amino]-1-[(1S,2S or 1R,2R)-2-cyanocyclohexyl]-1H-pyrazole-4-carboxamide], `N#C[C@@H]1CCCC[C@H]1n1cc(C(N)=O)c(Nc2ccc(F)nc2)n1` (single isomer, unassigned) [Example 17-23, 1-[(1R,2R or 1S,2S)-2-cyanocyclohexyl]-3-[(6-fluoropyridin-3-yl)amino]-1H-pyrazole-4-carboxamide] is 1.6-fold higher in IC50: 7 nM for the first, 11 nM for the second.

`N#C[C@H]1C[C@@H](N2CCC2)CC[C@@H]1n1cc(C(N)=O)c(Nc2ccc(CC(F)(F)F)cc2)n1` (single isomer, unassigned) [Example 28-69, 1-[(1S,2S,4S or 1R,2R,4R)-4-azetidin-1-yl-2-cyanocyclohexyl]-3-{[4-(2,2,2-trifluoroethyl)phenyl]amino}-1H-pyrazole-4-carboxamide] and `N#C[C@H]1CCCCC1n1cc(C(N)=O)c(Nc2ccc(S(=O)(=O)CC(F)(F)F)cc2)n1` (mixture of isomers) [Example 17-12, 1-[(1S,2S and 1R,2R)-2-cyanocyclohexyl]-3-({4-[(2,2,2-trifluoroethyl)sulfonyl]phenyl}amino)-1H-pyrazole-4-carboxamide] are within 1.5-fold of each other in IC50: 0.6 nM for the first, 0.49 nM for the second.

Going from `CC1(C)CN([C@@H]2CC[C@H](n3cc(C(N)=O)c(Nc4ccnc(F)c4)n3)[C@@H](C#N)C2)C1` (single isomer, unassigned) [Example 28-142, 1-[(1S,2S,4R or 1R,2R,4S)-2-cyano-4-(3,3-dimethylazetidin-1-yl)cyclohexyl]-3-[(2-fluoropyridin-4-yl)amino]-1H-pyrazole-4-carboxamide] to `CN(C)[C@H]1CC[C@H](n2cc(C(N)=O)c(Nc3ccc(F)cc3)n2)[C@@H](C#N)C1` (single isomer, unassigned) [Example 28-129, 1-[(1S,2S,4S or 1R,2R,4R)-2-cyano-4-(dimethylamino)cyclohexyl]-3-[(4-fluorophenyl)amino]-1H-pyrazole-4-carboxamide], the IC50 rises from 2 nM to 20 nM (10-fold). The first is the more potent here.

Compared with `C[C@](O)(c1ccc(Nc2nn([C@H]3CCCC[C@@H]3C#N)cc2C(N)=O)cn1)C(F)F` (single isomer, unassigned) [Example 17-39, 1-[(1S,2S or 1R,2R)-2-cyanocyclohexyl]-3-({6-[(1S or 1R)-2,2-difluoro-1-hydroxy-1-methylethyl]pyridin-3-yl}amino)-1H-pyrazole-4-carboxamide], `C[C@H](N[C@@H]1CC[C@H](n2cc(C(N)=O)c(Nc3ccc(OC(F)F)nc3)n2)[C@@H](C#N)C1)C1CC1` (single isomer, unassigned) [Example 28-13, 1-[(1S,2S,4R or 1R,2R,4S)-2-cyano-4-{[(1S)-1-cyclopropylethyl]amino}cyclo-hexyl]-3-{[6-(difluoromethoxy)pyridin-3-yl]amino}-1H-pyrazole-4-carboxamide] is 11-fold higher in IC50: 1 nM for the first, 11 nM for the second. The first is the more potent here.

First: C=C[C@@]1(O)CC[C@H](n2cc(C(N)=O)c(Nc3ccc(Cl)cc3)n2)[C@@H](C#N)C1 (single isomer, unassigned) [Example 32-16, 3-[(4-chlorophenyl)amino]-1-[(1S,2S,4R or 1R,2R,4S)-2-cyano-4-ethenyl-4-hydroxycyclohexyl]-1H-pyrazole-4-carboxamide]
Second: C[C@]1(O)CC[C@H](n2cc(C(N)=O)c(Nc3ccc(Cl)c(F)c3)n2)[C@@H](C#N)C1 (single isomer, unassigned) [Example 32-17, 3-[(4-chloro-3-fluorophenyl)amino]-1-[(1S,2S,4S or 1R,2R,4R)-2-cyano-4-hydroxy-4-methylcyclohexyl]-1H-pyrazole-4-carboxamide]
The IC50 of the first is 2.4-fold lower: 0.85 nM for the first, 2 nM for the second.

`N#Cc1ccc(Nc2nn([C@H]3CC[C@H](NCC(F)F)C[C@@H]3C#N)cc2C(N)=O)cc1` (single isomer, unassigned) [Example 28-116, 1-{(1S,2S,4S or 1R,2R,4R)-2-cyano-4-[(2,2-difluoroethyl)amino]cyclohexyl}-3-[(4-cyanophenyl)amino]-1H-pyrazole-4-carboxamide] and `CC(C)(CF)c1ccc(Nc2nn([C@H]3CC[C@H](O)C[C@@H]3C#N)cc2C(N)=O)cc1` (single isomer, unassigned) [Example 33-21, 1-[(1S,2S,4S or 1R,2R,4R)-2-cyano-4-hydroxycyclohexyl]-3-{[4-(2-fluoro-1,1-dimethylethyl)phenyl]amino}-1H-pyrazole-4-carboxamide] are the same in IC50: 1 nM for the first, 1 nM for the second.

Going from `N#C[C@H]1C[C@@H](C(=O)N2CC(F)(F)C2)CC[C@@H]1n1cc(C(N)=O)c(Nc2ccc(Cl)cc2)n1` (single isomer, unassigned) [Example 35-6, 3-[(4-chlorophenyl)amino]-1-{(1S,2S,4S or 1R,2R,4R)-2-cyano-4-[(3,3-difluoroazetidin-1-yl)carbonyl]cyclohexyl}-1H-pyrazole-4-carboxamide] to `CC(C)(C)OC(=O)[C@H]1CCC(n2cc(C(N)=O)c(Nc3ccc(F)cc3)n2)[C@@H](C#N)C1` (mixture of isomers) [Example 7-1, tert-Butyl (1S,3S,4S and 1R,3R,4R)-4-{4-carbamoyl-3-[(4-fluorophenyl)amino]-1H-pyrazol-1-yl}-3-cyanocyclohexanecarboxylate], the IC50 falls from 62 nM to 17 nM (3.6-fold).
